# Measured values from paper PMC9446799, “Preparation of a camptothecin analog FLQY2 self-micelle solid dispersion with improved solubility and bioavailability” (Journal of Nanobiotechnology, 2022).
# Where a name gives a salt, the structure may show the parent alone.
# Assays:
# [1] = Inhibition of crystallization (solvent-shift method); format: physicochemical; details: for saturated concentration of FLQY2: in Soluplus aqueous solution (2 mg/mL), 37 °C
# Description: Inhibition of crystallization was studied using the solvent-shift method. 3 mL FLQY2 DMSO solution (1 mg/mL) was mixed respectively with six different 30 mL aqueous solution including six carriers (2 mg/mL) and stirred at 120 r/min under 37 °C. 0.5 mL solution was collected at 0.0833, 0.5, 1, 2, 4, 6, 8 h, filtered through 0.22 μm filters, and determined the dissolved FLQY2 by HPLC.
# [2] = test system: HCT 116 and Hep G2 cell lines; design: method as in PMID 31309350; details: cited from earlier work
# [3] = test system: HCT 116 and MIA PaCa-2 cells; test: MTT cytotoxicity assay; format: cell-based, Human
# Description: (§1) The sample preparation: FLQY2 was dissolved in DMSO as a stock solution, and the stock solution was diluted by DMEM medium as a working solution. FLQY2-SD/ FLQY2-PM powder was dissolved in water, then the FLQY2-SD/FLQY2-PM solution was diluted by DMEM medium.
# (§2) The cells were cultured in McCoy’s 5A medium for HCT 116 or DMEM medium for MIA PaCa-2 cells. All mediums contained 10% FBS and 1% penicillin–streptomycin solution. The cytotoxicity of FLQY2/FLQY2-SD was measured against these cells using an MTT assay. Briefly, 1 × 10^4 cells per well were seeded into 96 well plates for 24 h. Different concentrations of FLQY2 /FLQY2-SD solution and blank fresh medium were added to the plates and then incubated for 72 h. After adding MTT solution (5 mg/mL) for 4 h, 150 μL of DMSO was added to dissolve the formazan crystals. Absorbance at 570 nm with the control wavelength of 630 nm was used in infinite M200 pro (Tecan, Switzerland). Cell viability was expressed as a percentage relative to the blank control.
# MTT cytotoxicity assay = format: cell-based, Human; details: human
# Description: as §1, §2
# P-gp = details: cited from earlier work
# [4] = Identification of metabolites in plasma, urine and feces (UPLC-TripleTOF); details: ESI−, [M-H]-; F, U, P not defined in the table (feces, urine, plasma samples analysed)
# Description: The plasma, urine, and feces samples were processed as described above without IS, and the remaining volumes were made up of the precipitant. Chromatographic analysis was performed on an UltiMate 30 (Thermo Fisher Scientific, San Jose, CA, USA). Separation was carried out on an ACQUITY UPLC HSS T3 (1.8 μm, 2.1 × 100 mm) at 40 °C, 2 µL injection volume. In the positive ion mode, the mobile phase consisted of water containing 0.1% formic acid (A) and acetonitrile containing 0.1% formic acid (B). The gradient elution was performed with 5% B for 1.5 min, increasing to 10% B at 2.5 min, then ramping to 40% B at 14 min, rising to 95% B at 22 min, and remaining at 95% B until 25 min, and finally, the column was reconditioned with 5% B for 5 min. The mobile phase consisted of water containing 2 mM ammonium acetate (A) and acetonitrile (B) in the negative ion mode. The gradient elution was the same as in the positive ion mode.
# Mass spectrometric analysis was acquired by Peakview 2.2 and MetabolitePilot 2.0.4 software using a quadrupole time-of-flight mass spectrometry (TripleTOF™ 5600, AB Sciex Corporation., Foster City, CA) with MS scans and information dependent acquisition (IDA) MS/MS scans. The mass spectrometer was operated in both positive and negative ion mode with electrospray ionization (ESI) source at 650 ℃. […]
# HT-29 tumor = test: Anticancer activity in vivo in HT-29 tumor-bearing mice; design: species or system BALB/c mice; details: 100 mpk, i.p./QW, day 28
# Description: 0.1 mL suspension of HT-29 cells were inoculated in female BALB/c mice at a density of 2 × 10^7/mL. After the tumors grew to 100–200 mm^3 (the day recorded as D0), the mice were randomly grouped and administered with Irinotecan hydrochloride (100 mpk, i.p./QW) (n = 6), Paclitaxel-albumin (15 mpk, i.v./Q4D) (n = 6), FLQY2-SD (1.5 mpk, p.o./QW) (n = 6), FLQY2-SD (1 mpk, p.o./QW) (n = 6), and saline as a blank control (n = 12). The tumor volume and body weight of the mice were recorded every 2 days. On day 28, the mice were sacrificed, and the tumors were surgically removed and weighed. Some parameters were calculated as follows.
# tumor volume (TV): TV=1/2×ab^2
# relative tumor volume (RTV): RTV=Vt/V0
# tumor growth inhibition (TGI): TGI=(1-VT28-VT0/VC28-VC0)×100%
# Where a and b are the length and width of the tumors; V0 and Vt are the tumor volume measured at D0 and at each measurement time Dt; VT28 and VT0 are the mean tumor volume in the treatment group at D28 and D0; VC28 and VC0 are the mean tumor volume in the negative control group at D28 and D0.
molecule,measurement,setting,value
"CC[C@@]1(O)C(=O)OCc2c1cc1n(c2=O)Cc2c-1nc1cc3c(cc1c2-c1ccc(C(F)(F)F)cc1)OCO3 [FLQY2, 7-p-trifluoromethylphenyl-FL118]",saturated concentration of FLQY2,[1]; at 5 min,51.60 µg/mL
same,saturated concentration of FLQY2,[1]; at 8 h,48.76 µg/mL
same,crystallization inhibition outcome,"[1]; mixture including PEG4000, PEG6000, PVP Va64, HS 15 and P407 (2 mg/mL)",crystallization and precipitation
same,IC50,[2],nM level
same,cytotoxicity,[3],dose-dependent toxicity
same,"viability at 2 h, 1 µM",MTT cytotoxicity assay,> 92.5%
same,efflux ratio,P-gp,< 2
CC[C@@]1(O)OCc2c1cc1n(c2=O)Cc2c-1nc1cc3c(cc1c2-c1ccc(C(F)(F)F)cc1)OCO3 [M3],Source (biological sample in which detected),[4],"F, U, P"
Polyvinyl caprolactam-polyvinyl acetate-polyethylene glycol graft copolymer [Soluplus®],cell viability,[3],exceeded 91.0 ± 3.8%
C=c1c(=O)n2c(c/c1=C(/O)CC)-c1nc3cc4c(cc3c(-c3ccc(C(F)(F)F)cc3)c1C2)OCO4 [M1],Source (biological sample in which detected),[4],"F, U, P"
CCc1c2c(nc3ccc(OC(=O)N4CCC(N5CCCCC5)CC4)cc13)-c1cc3c(c(=O)n1C2)COC(=O)[C@]3(O)CC [Irinotecan hydrochloride],TGI,HT-29 tumor,66.5%
